This note sets out measurements from article PMC9109178 (Science (New York, N.Y.), 2021).

Molecules are shown by their SMILES.

Assay [1] has as its target T1, A. baumannii MsbA (Acinetobacter baumannii, UniProt A0A0B9X4I2).
T1 sequence (A0A0B9X4I2 1-575): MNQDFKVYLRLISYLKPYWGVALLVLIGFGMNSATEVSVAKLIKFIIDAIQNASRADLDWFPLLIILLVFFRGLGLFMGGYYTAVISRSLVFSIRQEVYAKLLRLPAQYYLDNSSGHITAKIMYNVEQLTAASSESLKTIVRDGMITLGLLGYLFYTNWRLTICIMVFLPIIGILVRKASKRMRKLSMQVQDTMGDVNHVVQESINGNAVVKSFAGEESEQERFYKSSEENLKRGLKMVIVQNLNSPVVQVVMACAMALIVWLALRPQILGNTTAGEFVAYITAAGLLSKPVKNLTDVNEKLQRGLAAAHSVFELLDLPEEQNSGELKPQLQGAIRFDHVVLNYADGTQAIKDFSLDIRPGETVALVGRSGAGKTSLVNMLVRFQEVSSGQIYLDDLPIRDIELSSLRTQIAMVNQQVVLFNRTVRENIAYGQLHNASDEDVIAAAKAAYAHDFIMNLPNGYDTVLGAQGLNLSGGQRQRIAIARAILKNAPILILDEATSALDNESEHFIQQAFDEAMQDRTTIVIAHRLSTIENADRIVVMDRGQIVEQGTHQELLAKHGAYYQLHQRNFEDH
Particulars: POPG nanodiscs, no TBT1.

Assay [2] deals with T1, A. baumannii MsbA. The assay is described as follows: ATPase activity assay. The class given is biochemical. Particulars: stimulation of ATPase activity; allosteric, central substrate (LPS) binding site.

Consider `Nc1ncnc2c1ncn2[C@@H]1O[C@H](COP(=O)(O)OP(=O)(O)OP(=O)(O)O)[C@@H](O)[C@H]1O` [ATP], for which the “ATPase activity, Michaelis-Menten kinetics” value on A. baumannii MsbA [1] is “ATPase activity of A. baumannii MsbA in nanodiscs, measured at varying ATP and TBT1 concentrations”.

On to `O=C(Nc1sc2c(c1C(=O)O)CCCC2)c1ccc(Cl)cc1` [TBT1], for which the EC50 on A. baumannii MsbA [2] was about 13 µM.
